Publication PMC12521546 (Nature Communications, 2025)
≈ marks a conversion by molar mass, not a printed value. Entries after “also recorded” stand apart in the source; their conditions may differ. Where two headings read alike, the source gives them in different places.

Tests used:
CnAcs1 [1] = biological target: T1, CnAcs1 (Cryptococcus neoformans, UniProt J9VFT1); assay: Acs coupled kinetic pyrophosphate; type: biochemical
T1 sequence (J9VFT1 1-680): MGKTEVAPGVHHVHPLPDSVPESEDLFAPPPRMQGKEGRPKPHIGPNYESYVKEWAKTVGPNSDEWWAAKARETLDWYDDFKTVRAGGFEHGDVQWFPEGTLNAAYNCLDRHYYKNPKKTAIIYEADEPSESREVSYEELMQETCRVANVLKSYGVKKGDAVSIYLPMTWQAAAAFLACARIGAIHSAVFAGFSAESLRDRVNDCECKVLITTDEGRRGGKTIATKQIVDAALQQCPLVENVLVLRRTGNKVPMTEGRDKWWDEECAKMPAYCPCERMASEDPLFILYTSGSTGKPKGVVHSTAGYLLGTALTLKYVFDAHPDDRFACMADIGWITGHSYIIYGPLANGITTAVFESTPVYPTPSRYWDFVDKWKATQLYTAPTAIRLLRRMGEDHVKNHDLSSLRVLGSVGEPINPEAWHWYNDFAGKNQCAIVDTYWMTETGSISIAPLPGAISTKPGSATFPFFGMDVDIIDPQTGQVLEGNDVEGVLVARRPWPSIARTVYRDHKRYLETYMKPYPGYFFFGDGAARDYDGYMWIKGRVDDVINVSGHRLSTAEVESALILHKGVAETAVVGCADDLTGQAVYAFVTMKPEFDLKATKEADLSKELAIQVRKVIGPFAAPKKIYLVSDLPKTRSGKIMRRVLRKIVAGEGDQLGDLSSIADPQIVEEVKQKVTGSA

CnAcs1 [2] = biological target: T1, CnAcs1; conditions: cited from earlier work; for IC50: read-out: IC50 CnAcs1, alkyl-AMP esters
CaAcs2 [3] = biological target: T2, CaAcs2 (Candida albicans, UniProt Q8NJN3); conditions: read-out: IC50 CaAcs2; cited from earlier work
T2 sequence (Q8NJN3 1-671): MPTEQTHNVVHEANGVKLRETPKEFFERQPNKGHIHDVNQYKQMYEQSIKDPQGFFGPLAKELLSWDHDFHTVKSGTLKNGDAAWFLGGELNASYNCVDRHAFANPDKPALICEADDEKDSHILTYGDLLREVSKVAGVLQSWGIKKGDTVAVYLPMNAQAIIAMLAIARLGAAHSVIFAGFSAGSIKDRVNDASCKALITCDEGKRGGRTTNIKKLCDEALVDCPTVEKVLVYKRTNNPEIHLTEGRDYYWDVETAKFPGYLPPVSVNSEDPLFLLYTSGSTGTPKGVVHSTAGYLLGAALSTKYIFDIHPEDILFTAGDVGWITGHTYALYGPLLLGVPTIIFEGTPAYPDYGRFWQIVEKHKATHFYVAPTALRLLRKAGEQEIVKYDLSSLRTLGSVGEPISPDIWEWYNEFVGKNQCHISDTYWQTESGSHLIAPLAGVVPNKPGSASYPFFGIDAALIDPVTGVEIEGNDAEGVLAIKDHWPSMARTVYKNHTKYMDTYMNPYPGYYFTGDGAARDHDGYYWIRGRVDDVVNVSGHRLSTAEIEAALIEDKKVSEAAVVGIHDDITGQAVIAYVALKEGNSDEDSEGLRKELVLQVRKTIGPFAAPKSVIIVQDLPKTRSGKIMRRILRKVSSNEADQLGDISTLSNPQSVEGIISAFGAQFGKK

Ca^CnAcs2 = biological target: T3, Ca^CnAcs2 (Candida albicans, UniProt Q8NJN3, A319M/F357Y/G320A/Q430M/V371T); assay: Acs assay, Ca^CnAcs2 mutant enzyme; conditions: for IC50: read-out: IC50 Ca^CnAcs2
T3 sequence (Q8NJN3 with tags, fused parts or gaps A319M/G320A/F357Y/V371T/V388A/Q430M): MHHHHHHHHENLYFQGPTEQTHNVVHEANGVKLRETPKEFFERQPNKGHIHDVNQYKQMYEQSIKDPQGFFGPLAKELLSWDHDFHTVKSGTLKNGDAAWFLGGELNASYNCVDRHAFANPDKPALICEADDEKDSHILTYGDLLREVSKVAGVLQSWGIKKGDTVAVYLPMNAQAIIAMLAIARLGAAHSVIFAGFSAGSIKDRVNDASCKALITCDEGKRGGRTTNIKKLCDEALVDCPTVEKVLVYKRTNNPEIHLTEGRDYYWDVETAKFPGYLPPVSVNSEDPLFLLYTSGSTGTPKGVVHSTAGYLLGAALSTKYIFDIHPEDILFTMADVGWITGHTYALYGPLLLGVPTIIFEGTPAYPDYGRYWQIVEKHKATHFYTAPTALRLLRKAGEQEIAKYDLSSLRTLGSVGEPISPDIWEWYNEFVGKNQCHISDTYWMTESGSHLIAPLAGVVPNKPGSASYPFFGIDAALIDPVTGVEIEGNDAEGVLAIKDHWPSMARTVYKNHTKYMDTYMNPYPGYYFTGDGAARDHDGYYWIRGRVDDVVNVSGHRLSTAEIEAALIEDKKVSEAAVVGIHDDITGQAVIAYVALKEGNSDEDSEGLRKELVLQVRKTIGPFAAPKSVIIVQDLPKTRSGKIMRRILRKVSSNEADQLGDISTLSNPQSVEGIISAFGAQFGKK

PfAcAS = conditions: cited from earlier work
[4] = system: C. neoformans reference strain H99; assay: MIC, modified CLSI micro-broth dilution, H99; type: cell-based, Cryptococcus neoformans
CaAcs2 [5] = biological target: T2, CaAcs2; assay: Acs coupled kinetic assay, CaAcs2; type: biochemical
human ACSS2 = human ACSS2 (Homo sapiens, UniProt Q9NR19); assay: Acs coupled kinetic assay, human ACSS2; type: biochemical
Sequence of human ACSS2 (Q9NR19 whole entry): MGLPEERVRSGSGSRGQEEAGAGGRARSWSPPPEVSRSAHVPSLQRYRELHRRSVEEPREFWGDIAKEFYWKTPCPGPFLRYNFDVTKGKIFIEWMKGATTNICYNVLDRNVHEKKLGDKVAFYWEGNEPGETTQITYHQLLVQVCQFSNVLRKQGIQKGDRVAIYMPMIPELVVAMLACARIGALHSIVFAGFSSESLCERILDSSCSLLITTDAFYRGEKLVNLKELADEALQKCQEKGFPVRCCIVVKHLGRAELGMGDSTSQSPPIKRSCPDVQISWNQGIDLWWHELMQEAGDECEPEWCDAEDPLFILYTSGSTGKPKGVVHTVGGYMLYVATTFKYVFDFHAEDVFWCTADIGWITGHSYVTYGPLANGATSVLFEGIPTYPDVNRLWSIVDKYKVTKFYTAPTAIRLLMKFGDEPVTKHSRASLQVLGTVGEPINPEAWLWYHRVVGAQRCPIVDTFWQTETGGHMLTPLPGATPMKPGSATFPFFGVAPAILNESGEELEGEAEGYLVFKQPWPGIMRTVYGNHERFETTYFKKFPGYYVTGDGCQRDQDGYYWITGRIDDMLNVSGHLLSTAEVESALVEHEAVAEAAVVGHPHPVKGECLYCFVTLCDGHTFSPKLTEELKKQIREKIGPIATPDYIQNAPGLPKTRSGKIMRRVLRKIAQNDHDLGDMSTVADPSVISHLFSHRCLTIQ

Compound: CC(C)OP(=O)(O)OCC1OC(n2cnc3c(N)ncnc32)C(O)C1O (stereo not drawn) [isopropyl-AMP ester]
- inhibition of CnAcs1 (in words) (CnAcs1 [1]): equivalent to that of the cyclopropyl-AMP ester

Compound: CCOP(=O)(O)OC[C@H]1O[C@@H](n2cnc3c(N)ncnc32)[C@H](O)[C@@H]1O [ethyl-AMP]
- IC50 (CnAcs1 [2]): 8 µM
- IC50 (CaAcs2 [3]): 11 ± 5 µM
- IC50 (Ca^CnAcs2): 19 ± 7 µM

Compound: COc1ccccc1-c1cccc(C(=O)N(C)Cc2cc(C3CC3)on2)c1 [compound 10]
- inhibition of CnAcs1 (in words) (CnAcs1 [1]): eliminated activity

Compound: CCCOP(=O)(O)OC[C@H]1O[C@@H](n2cnc3c(N)ncnc32)[C@H](O)[C@@H]1O [propyl]
- decrease in potency relative to ethyl-AMP (CnAcs1 [2]): 3 fold

Compound: Cc1cc(CN(C)C(=O)c2cccc(-c3ccc(F)cc3)c2)no1 [compound 6]
- inhibition of CnAcs1 (in words) (CnAcs1 [1]): much less potent than 2
- inhibition at 100 µM (CnAcs1 [1]; read-out: inhibition of CnAcs1): 50%

Compound: COP(=O)(O)OCC1OC(n2cnc3c(N)ncnc32)C(O)C1O (stereo not drawn) [methyl-AMP ester]
- inhibition of CnAcs1 (in words) (CnAcs1 [1]): completely inactive

Compound: CCN(CC)S(=O)(=O)c1ccc(Cl)c(C(=O)Nc2ccc3nc(C)sc3c2)c1 [MMV019721]
- kinetic mechanism of PfAcAS inhibition (PfAcAS): competitive with ATP and uncompetitive with CoA
- inhibition of CnAcs1 (in words) (CnAcs1 [1]): did not inhibit CnAcs1 below its solubility limit; also recorded: does not inhibit CnAcs1 at the maximum soluble concentration; also recorded: does not significantly inhibit CnAcs1
- antifungal activity against C. neoformans (in words) [4]: no activity

Compound: COc1ccc(-c2cccc(C(=O)N(C)Cc3cc(C4CC4)on3)c2)cc1 [compound 9]
- inhibition of CnAcs1 (in words) (CnAcs1 [1]): activity that was similar to 1 and more potent than 2

Compound: CN(Cc1ccon1)C(=O)c1cccc(-c2ccc(F)cc2)c1 [compound 7]
- inhibition of CnAcs1 (in words) (CnAcs1 [1]): completely inactive

Compound: O=C(NNC(=O)c1csnn1)c1ccc(Cl)cc1 [MMV084978]
- kinetic mechanism of PfAcAS inhibition (PfAcAS): uncompetitive inhibitor with respect to ATP and CoA
- IC50 (PfAcAS; read-out: IC50 PfAcAS): 0.37 µM
- inhibition of CaAcs2 (in words) (CaAcs2 [5]): did not inhibit CaAcs2
- fold higher IC50 toward CnAcs1 than PfAcAS (CnAcs1 [1]): ~ 8 fold
- kinetic mechanism of CnAcs1 inhibition (CnAcs1 [1]): uncompetitive
- kinetic mechanism of CnAcs1 inhibition (CnAcs1 [1]; listed as MMV089478): uncompetitive inhibitor of CnAcs1
- fold higher IC50 toward CnAcs1 than PfAcAS (CnAcs1 [1]; listed as MMV0894978): 8 fold
- Ki (CnAcs1 [1]; read-out: Ki with CnAcs1, uncompetitive model, CoA varied): 4.1 µM
- maximum inhibition of Ca^CnAcs2 (Ca^CnAcs2): 93%
- IC50 (Ca^CnAcs2): 88 ± 21 µM
- fold higher IC50 toward ACSS2 than PfAcAS (human ACSS2): 50 fold
- MIC toward C. neoformans ([4]; medium not stated): 64 µg/mL (≈ 226 µM)

Compound: Nc1ncnc2c1ncn2[C@@H]1O[C@H](COP(=O)(O)OC2CC2)[C@@H](O)[C@H]1O [cyclopropyl-AMP ester]
- IC50 (CnAcs1 [2]): 9 µM

Compound: COC(=O)c1cccc(N2N=C(C)C(C(=O)Nc3cccc(C(C)(F)F)c3)C2=O)c1 (stereo not drawn) [MTB-9655]
- inhibition of CnAcs1 (in words) (CnAcs1 [1]): no activity against CnAcs1

Compound: CCCCOP(=O)(O)OCC1OC(n2cnc3c(N)ncnc32)C(O)C1O (stereo not drawn) [butyl]
- decrease in potency relative to ethyl-AMP (CnAcs1 [2]): > 50 fold

Compound: CN(Cc1cccc(-c2ccc(F)cc2)c1)Cc1cc(C2CC2)on1 [compound 3]
- inhibition of CnAcs1 (in words) (CnAcs1 [1]): no activity against CnAcs1

Compound: CC(C)c1cc(CN(C)C(=O)c2cccc(-c3ccc(F)cc3)c2)no1 [compound 5]
- inhibition of CnAcs1 (in words) (CnAcs1 [1]): eliminated inhibition entirely

Compound: CN(Cc1cc(C2CC2)on1)C(=O)c1cccc(-c2ccccc2)c1 [compound 12]
- inhibition of CnAcs1 (in words) (CnAcs1 [1]): no activity

Compound: O=C(NCc1cc(C2CC2)on1)c1cccc(-c2ccc3c(c2)CCO3)c1 [compound 8]
- inhibition of CnAcs1 (in words) (CnAcs1 [1]): no activity against CnAcs1
